Test results from patent publication US7420001B2 (Wyeth, priority 2003, dated 2008).

Columns and labels:
Format in all cases: biochemical
MMP-2 = target: T1, MMP-2 (Homo sapiens, UniProt P08253); experiment: In-vitro fluorescence assay of MMP-2 activity; settings: recombinant human MMP-2; read-out: MMP-2 IC50
T1 construct: purchased Oncogene Research Products (Calbiochem) PF023
T1 sequence (P08253 110-660): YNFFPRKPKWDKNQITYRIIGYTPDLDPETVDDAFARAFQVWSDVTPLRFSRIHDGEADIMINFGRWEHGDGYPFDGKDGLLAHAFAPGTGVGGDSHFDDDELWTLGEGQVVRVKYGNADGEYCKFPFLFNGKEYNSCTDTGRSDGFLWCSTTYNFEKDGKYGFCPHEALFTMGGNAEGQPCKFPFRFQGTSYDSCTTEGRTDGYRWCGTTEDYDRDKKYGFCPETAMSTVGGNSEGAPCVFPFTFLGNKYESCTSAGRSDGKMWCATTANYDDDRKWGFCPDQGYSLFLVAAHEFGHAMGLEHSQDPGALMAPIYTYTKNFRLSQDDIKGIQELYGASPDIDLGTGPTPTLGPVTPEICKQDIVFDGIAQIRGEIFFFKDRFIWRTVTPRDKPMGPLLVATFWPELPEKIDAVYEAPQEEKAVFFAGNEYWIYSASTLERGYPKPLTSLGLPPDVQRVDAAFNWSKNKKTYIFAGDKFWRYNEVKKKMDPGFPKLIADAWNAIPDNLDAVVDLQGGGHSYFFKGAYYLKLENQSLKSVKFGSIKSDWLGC

MMP-13 = target: T2, MMP-13 (Homo sapiens, UniProt P45452); experiment: In-vitro fluorescence assay of MMP-13 activity; settings: recombinant human catalytic domain of MMP-13; read-out: MMP-13 IC50
T2 construct: made in house

MMP-14 = target: T3, MMP-14 (Homo sapiens, UniProt P50281); experiment: In-vitro fluorescence assay of MMP-14 activity; settings: recombinant human catalytic domain of MMP-14
T3 construct: 20 kDa; purchased Chemicon International, Inc. CC 1041

## O=C(O)CNS(=O)(=O)c1ccc(-c2ccc(NC(=O)c3cc4ccccc4o3)cc2)cc1 [Example 1, N-({4′-[(1-benzofuran-2-ylcarbonyl)amino]-1,1′-biphenyl-4-yl}sulfonyl)glycine]
MMP-2
  IC50: 47 nM
MMP-13
  IC50: 35 nM
MMP-14
  IC50: 13900 nM

## CC(C)[C@H](NS(=O)(=O)c1ccc(-c2ccc(NC(=O)c3cc4ccccc4[nH]3)cc2)cc1)C(=O)O [Example 3]
MMP-14
  IC50: 5600 nM

## CC(C)[C@H](NS(=O)(=O)c1ccc(-c2ccc(NC(=O)c3nc4ccccc4o3)cc2)cc1)C(=O)O [Example 127, (S)-3-Methyl-2-{4′-[(benzooxazole-2-carbonyl)-amino]-biphenyl-4-sulfonylamino}-butyric acid]
MMP-2
  IC50: 47 nM
MMP-13
  IC50: 0.8 nM

## Cc1cccc2oc(C(=O)Nc3ccc(-c4ccc(S(=O)(=O)N[C@H](C(=O)O)C(C)C)cc4)cc3)nc12 [Example 128, (S)-3-Methyl-2-{4′-[(4-methyl-benzooxazole-2-carbonyl)-amino]-biphenyl-4-sulfonylamino}-butyric acid]
MMP-2
  IC50: 59.5 nM
MMP-13
  IC50: 2.8 nM

## CC(C)[C@H](NS(=O)(=O)c1ccc(-c2ccc(NC(=O)c3nc4cc(Cl)ccc4s3)cc2)cc1)C(=O)O [Example 130, (S)-3-Methyl-2-{4′-[(5-chloro-benzothiazole-2-carbonyl)-amino]-biphenyl-4-sulfonylamino}-butyric acid]
MMP-2
  IC50: 25.9 nM
MMP-13
  IC50: 2 nM

## CC(C)[C@H](NS(=O)(=O)c1ccc(-c2ccc(NC(=O)c3nc4cc(C(F)(F)F)ccc4s3)cc2)cc1)C(=O)O [Example 131, (S)-3-Methyl-2-{4′-[(5-trifluoromethyl-benzothiazole-2-carbonyl)-amino]-biphenyl-4-sulfonylamino}-butyric acid]
MMP-2
  IC50: 149 nM
MMP-13
  IC50: 17 nM

## CC(C)[C@@H](NS(=O)(=O)c1ccc(-c2ccc(OCc3nc4ccccc4n3C)cc2)cc1)C(=O)O [Example 138, D-3-Methyl-2-[4′-(1-methyl-1H-benzoimidazol-2-ylmethoxy)-biphenyl-4-sulfonylamino]-butyric acid]
MMP-2
  IC50: 1120 nM
MMP-13
  IC50: 89.3 nM

## Cc1c(COc2ccc(-c3ccc(S(=O)(=O)N[C@@H](C(=O)O)C(C)C)cc3)cc2)oc2ccccc12 [Example 139, D-3-Methyl-2-[4′-(3-methyl-benzofuran-2-ylmethoxy)-biphenyl-4-sulfonylamino]-butyric acid]
MMP-2
  IC50: 28 nM
MMP-13
  IC50: 4.4 nM
MMP-14
  IC50: 3500 nM

## COc1c(Cl)ccc2oc(COc3ccc(-c4ccc(S(=O)(=O)N[C@H](C(=O)O)C(C)C)cc4)cc3)c(C)c12 [Example 142, L-2-[4′-(5-Chloro-4-methoxy-3-methylbenzofuran-2-ylmethoxy)-biphenyl-4-sulfonylamino]-3-methyl butyric acid]
MMP-2
  IC50: 130 nM
MMP-13
  IC50: 2.1 nM

## COc1c(C#N)ccc2oc(COc3ccc(-c4ccc(S(=O)(=O)N[C@H](C(=O)O)C(C)C)cc4)cc3)c(C)c12 [Example 143, L-2-[4′-(5-Cyano-4-methoxy-3-methylbenzofuran-2-ylmethoxy)-biphenyl-4-sulfonylamino]-3-methyl butyric acid]
MMP-2
  IC50: 64 nM
MMP-13
  IC50: 1.2 nM

## CCc1cccc2oc(COc3ccc(-c4ccc(S(=O)(=O)N[C@H](C(=O)O)C(C)C)cc4)cc3)c(C)c12 [Example 146, L-2-[4′-(4-Ethyl-3-methylbenzofuran-2-ylmethoxy)-biphenyl-4-sulfonylamino]-3-methyl butyric acid]
MMP-2
  IC50: 207 nM
MMP-13
  IC50: 1.2 nM

## Cc1c(COc2ccc(-c3ccc(S(=O)(=O)N[C@@H](C(=O)O)C(C)C)cc3)cc2)oc2ccc(Br)c(OC(C)C)c12 [Example 149, N-({4′-[(5-Bromo-4-isopropoxy-3-methyl-1-benzofuran-2-yl)methoxy]-1,1′-biphenyl-4-yl}sulfonyl)-D-valine]
MMP-2
  IC50: 375 nM
MMP-13
  IC50: 7.9 nM

## COc1c(Br)ccc2oc(CNc3ccc(-c4ccc(S(=O)(=O)N[C@H](C(=O)O)C(C)C)cc4)cc3)c(C)c12 [Example 150, N-[(4′-{[(5-bromo-4-methoxy-3-methyl-1-benzofuran-2-yl)methyl]amino}-1,1′-biphenyl-4-yl)sulfonyl]-L-valine]
MMP-2
  IC50: 198 nM
MMP-13
  IC50: 8.1 nM

## Cc1c(C(=O)Nc2ccc(-c3ccc(S(=O)(=O)N[C@H](C(=O)O)C(C)C)cc3)cc2)oc2ccc3ccccc3c12 [Example 154, L-3-Methyl-2-{4′-[(1-methyl-naphtho[2,1-b]furan-2-carbonyl)-amino]-biphenyl-4-sulfonylamino}-butyric acid]
MMP-2
  IC50: 60 nM
MMP-13
  IC50: 1.7 nM

## COC(=O)C(C)(C)Oc1cccc2oc(C(=O)Nc3ccc(-c4ccc(S(=O)(=O)N[C@H](C(=O)O)C(C)C)cc4)cc3)c(C)c12 [Example 156, L-2-(4′-{[4-(1-Methoxycarbonyl-1-methyl-ethoxy)-3-methyl-benzofuran-2-carbonyl]-amino}-biphenyl-4-sulfonylamino)-3-methyl-butyric acid]
MMP-2
  IC50: 6200 nM
MMP-13
  IC50: 25 nM

## CCOC(=O)COc1cccc2oc(C(=O)Nc3ccc(-c4ccc(S(=O)(=O)N[C@H](C(=O)O)C(C)C)cc4)cc3)c(C)c12 [Example 157, L-2-{4′-[(4-Ethoxycarbonylmethoxy-3-methyl-benzofuran-2-carbonyl)-amino]-biphenyl-4-sulfonylamino}-3-methyl-butyric acid]
MMP-2
  IC50: 2050 nM
MMP-13
  IC50: 8.8 nM

## COC(=O)COc1cccc2oc(C(=O)Nc3ccc(-c4ccc(S(=O)(=O)N[C@H](C(=O)O)C(C)C)cc4)cc3)c(C)c12 [Example 158, L-2-{4′-[(4-Methoxycarbonylmethoxy-3-methyl-benzofuran-2-carbonyl)-amino]-biphenyl-4-sulfonylamino}-3-methyl-butyric acid]
MMP-2
  IC50: 1840 nM
MMP-13
  IC50: 8.7 nM

## Cc1c(C(=O)Nc2ccc(-c3ccc(S(=O)(=O)N[C@H](C(=O)O)C(C)C)cc3)cc2)oc2cccc(OCC(=O)O)c12 [Example 159, L-2-{4′-[(4-Carboxymethoxy-3-methyl-benzofuran-2-carbonyl)-amino]-biphenyl-4-sulfonylamino}-3-methyl-butyric acid]
MMP-2
  IC50: 3520 nM
MMP-13
  IC50: 8.5 nM

## Cc1c(C(=O)Nc2ccc(-c3ccc(S(=O)(=O)N[C@H](C(=O)O)C(C)C)cc3)cc2)oc2cccc(OCc3cccnc3)c12 [Example 160, L-3-Methyl-2-(4′-{[3-methyl-4-(pyridin-3-ylmethoxy)-benzofuran-2-carbonyl]-amino}-biphenyl-4-sulfonylamino)-butyric acid]
MMP-2
  IC50: 4550 nM
MMP-13
  IC50: 9.5 nM

## Cc1c(C(=O)Nc2ccc(-c3ccc(S(=O)(=O)N[C@H](C(=O)O)C(C)C)cc3)cc2)oc2cccc(O)c12 [Example 161, L-2-{4′-[(4-Hydroxy-3-methyl-benzofuran-2-carbonyl)-amino]-biphenyl-4-sulfonylamino}-3-methyl-butyric acid]
MMP-2
  IC50: 379 nM
MMP-13
  IC50: 6.1 nM

## CCn1c(C(=O)Nc2ccc(-c3ccc(S(=O)(=O)N[C@H](C(=O)O)C(C)C)cc3)nc2)nc2ccccc21 [Example 162, L-2-(4-{5-[(1-Ethyl-1H-benzimidazole-2-carbonyl)-amino]-pyridin-2-yl}-benzenesulfonylamino)-3-methyl-butyric acid]
MMP-2
  IC50: 2610 nM
MMP-13
  IC50: 85 nM

## CC(C)[C@H](NS(=O)(=O)c1ccc(-c2ccc(NC(=O)c3cc(-c4ccc(Cl)cc4)no3)cc2)cc1)C(=O)O [Example 166, (S)-2-(4′-{[3-(4-Chloro-phenyl)-isoxazole-5-carbonyl]-amino}-biphenyl-4-sulfonylamino)-3-methyl-butyric acid]
MMP-2
  IC50: 5.8 nM
MMP-13
  IC50: 3.1 nM

## Cc1c(C(=O)Nc2ccc(-c3ccc(S(=O)(=O)N[C@H](C(=O)O)C(C)C)cc3)cc2)oc2cccc(OCC(=O)N(C)C)c12 [Example 176, (S)-2-{4′-[(4-Dimethylcarbamoylmethoxy-3-methyl-benzofuran-2-carbonyl)-amino]-biphenyl-4-sulfonylamino}-3-methyl-butyric acid]
MMP-2
  IC50: 4340 nM
MMP-13
  IC50: 20 nM

## Cc1c(C(=O)Nc2ccc(-c3ccc(S(=O)(=O)N[C@H](C(=O)O)C(C)C)cc3)cc2)oc2cccc(OCCNC(=O)OC(C)(C)C)c12 [Example 177, (S)-2-(4′-{[4-(2-tert-Butoxycarbonylamino-ethoxy)-3-methyl-benzofuran-2-carbonyl]-amino}-biphenyl-4-sulfonylamino)-3-methyl-butyric acid]
MMP-2
  IC50: 3000 nM
MMP-13
  IC50: 15 nM

## Cc1c(C(=O)Nc2ccc(-c3ccc(S(=O)(=O)N[C@H](C(=O)O)C(C)C)cc3)cc2)oc2cccc(OCc3ccccn3)c12 [Example 178, (S)-3-Methyl-2-(4′-{[3-methyl-4-(pyridin-2-ylmethoxy)-benzofuran-2-carbonyl]-amino}-biphenyl-4-sulfonylamino)-butyric acid]
MMP-2
  IC50: 3320 nM
MMP-13
  IC50: 13 nM

## Cc1c(C(=O)Nc2ccc(-c3ccc(S(=O)(=O)N[C@H](C(=O)O)C(C)C)cc3)cc2)oc2cccc(OCc3ccncc3)c12 [Example 179, (S)-3-Methyl-2-(4′-{[3-methyl-4-(pyridin-4-ylmethoxy)-benzofuran-2-carbonyl]-amino}-biphenyl-4-sulfonylamino)-butyric acid]
MMP-2
  IC50: 4000 nM
MMP-13
  IC50: 7.1 nM
